Our source for the IC50 and Ratio IC50 values is ChEMBL document CHEMBL3813591, “Tasiamide F, a potent inhibitor of cathepsins D and E from a marine cyanobacterium” (Bioorg Med Chem, 2016).

For orientation: IC50 means the concentration needed to halve the response being measured.

One assay addresses Cathepsin D (Homo sapiens, UniProt P07339). Kind of assay: Inhibition of human liver cathepsin D using Mca-Gly-Lys-Pro-Ile-Leu-Phe-Phe-Arg-Leu-Lys-(Dnp)-D-Arg-NH2 as substrate preincubated for 15 mins followed by substrate addition measured every 5 mins for 120 mins by fluorescence analysis.
Another assay addresses T1, Cathepsin E (Homo sapiens, UniProt P14091).
T1 sequence (P14091 whole entry): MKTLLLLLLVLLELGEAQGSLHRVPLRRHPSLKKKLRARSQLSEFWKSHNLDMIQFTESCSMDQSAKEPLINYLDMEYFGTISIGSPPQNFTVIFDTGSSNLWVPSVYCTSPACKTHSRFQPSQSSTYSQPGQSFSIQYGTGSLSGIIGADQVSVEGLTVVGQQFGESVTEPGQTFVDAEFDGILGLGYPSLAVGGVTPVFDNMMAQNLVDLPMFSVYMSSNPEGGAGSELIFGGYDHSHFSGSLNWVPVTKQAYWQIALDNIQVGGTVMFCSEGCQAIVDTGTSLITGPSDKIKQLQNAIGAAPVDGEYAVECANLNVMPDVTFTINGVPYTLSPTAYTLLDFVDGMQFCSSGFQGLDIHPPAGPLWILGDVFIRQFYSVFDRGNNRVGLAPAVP
Briefly: Inhibition of human recombinant cathepsin E using Mca-Gly-Lys-Pro-Ile-Leu-Phe-Phe-Arg-Leu-Lys-(Dnp)-D-Arg-NH2 as substrate preincubated for 15 mins followed by substrate addition measured every 5 mins for 120 mins by fluorescence analysis.

For assay [1], the species on record is Homo sapiens. Kind of assay: Selectivity ratio of IC50 for human liver cathepsin D to IC50 for human recombinant cathepsin E.
For a further assay, the target named is Beta-secretase 1 (Homo sapiens, UniProt P56817). Briefly: Inhibition of BACE1 (unknown origin) using peptide substrate by time-course measurement-based fluorescence analysis.
Beta-secretase 1, sequence (P56817 whole entry): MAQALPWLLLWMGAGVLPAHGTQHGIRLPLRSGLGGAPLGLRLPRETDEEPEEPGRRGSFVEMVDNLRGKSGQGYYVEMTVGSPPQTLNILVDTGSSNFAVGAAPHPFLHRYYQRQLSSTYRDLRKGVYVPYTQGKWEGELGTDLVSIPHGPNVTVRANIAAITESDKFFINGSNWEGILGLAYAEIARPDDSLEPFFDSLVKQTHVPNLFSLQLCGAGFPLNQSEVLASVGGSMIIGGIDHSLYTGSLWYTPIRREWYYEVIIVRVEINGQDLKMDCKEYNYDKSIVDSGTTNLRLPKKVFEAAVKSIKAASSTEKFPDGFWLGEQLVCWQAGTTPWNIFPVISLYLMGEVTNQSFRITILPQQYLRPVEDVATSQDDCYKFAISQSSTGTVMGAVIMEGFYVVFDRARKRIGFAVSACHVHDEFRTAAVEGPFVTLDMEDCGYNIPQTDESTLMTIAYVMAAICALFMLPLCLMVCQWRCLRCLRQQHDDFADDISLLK
The species entered for assay [2] is Homo sapiens. Briefly: Selectivity ratio of IC50 for BACE1 (unknown origin) to IC50 for human liver cathepsin D.
For assay [3], the species on record is Homo sapiens. Kind of assay: Selectivity ratio of IC50 for BACE1 (unknown origin) to IC50 for human recombinant cathepsin E.

Starred links: 1 amine or outer side, 2 acyl side, 3 side chain; linkers in the order of their positions; H or OH if unused. Non-standard residues stand in square brackets, D forms with d. Residues, ends and D or L forms follow the SMILES beside them. Ahppa(3S,4S) = O=C(C[C@H](O)[C@H](Cc1ccccc1)N[*:1])[*:2]; dNMeF = CN[C@H](Cc1ccccc1)C(=O)O; NMeQ = CN[C@@H](CCC(N)=O)C(=O)O; Lac = C[C@H](O)C(=O)O

Cathepsin D, sequence (P07339 65-162 limits assumed): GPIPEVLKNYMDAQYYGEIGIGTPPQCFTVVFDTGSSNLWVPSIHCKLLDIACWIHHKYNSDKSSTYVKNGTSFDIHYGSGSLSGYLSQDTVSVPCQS
Cathepsin D, sequence (P07339 169-412 limits assumed): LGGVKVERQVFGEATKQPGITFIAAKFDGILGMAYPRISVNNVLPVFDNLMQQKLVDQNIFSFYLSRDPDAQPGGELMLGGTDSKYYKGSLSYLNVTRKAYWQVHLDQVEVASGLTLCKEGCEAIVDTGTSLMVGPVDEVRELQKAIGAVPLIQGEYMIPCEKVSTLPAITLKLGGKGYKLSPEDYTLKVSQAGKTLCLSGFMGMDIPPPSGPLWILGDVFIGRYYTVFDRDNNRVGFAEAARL

Regarding `CC[C@H](C)[C@H](NC(=O)C[C@H](O)[C@H](Cc1ccccc1)NC(=O)[C@H](CCC(N)=O)N(C)C(=O)[C@@H](NC(=O)[C@H](C)O)[C@@H](C)CC)C(=O)NCC(=O)N(C)[C@H](Cc1ccccc1)C(=O)N1CCC[C@H]1C(=O)OC` (H-[Lac]I[NMeQ][Ahppa(3S,4S)]IG[dNMeF]P-OMe), the IC50 on Cathepsin D stood at 0.057 µM; at Cathepsin E, 0.023 µM; at Beta-secretase 1, 0.69 µM. Also, the figures for the Ratio IC50 in the assay listed under Homo sapiens [1], in the assay listed under Homo sapiens [2] and in the assay listed under Homo sapiens [3] were 2.4, 12 and 30, respectively.
